Among the targets are BRAF (human) (UniProt P15056); EPHA6 (human) (UniProt Q9UF33); TLK2 (human) (UniProt Q86UE8).
Common to all, as to experiment: radiometric filter-binding kinase assay, Kinase HotSpot
What all share (settings): compound 0.5 µM; ATP 10 µM

The structures appear in SMILES notation.

Chain of EPHA6 (human) (Q9UF33 whole entry, looked up): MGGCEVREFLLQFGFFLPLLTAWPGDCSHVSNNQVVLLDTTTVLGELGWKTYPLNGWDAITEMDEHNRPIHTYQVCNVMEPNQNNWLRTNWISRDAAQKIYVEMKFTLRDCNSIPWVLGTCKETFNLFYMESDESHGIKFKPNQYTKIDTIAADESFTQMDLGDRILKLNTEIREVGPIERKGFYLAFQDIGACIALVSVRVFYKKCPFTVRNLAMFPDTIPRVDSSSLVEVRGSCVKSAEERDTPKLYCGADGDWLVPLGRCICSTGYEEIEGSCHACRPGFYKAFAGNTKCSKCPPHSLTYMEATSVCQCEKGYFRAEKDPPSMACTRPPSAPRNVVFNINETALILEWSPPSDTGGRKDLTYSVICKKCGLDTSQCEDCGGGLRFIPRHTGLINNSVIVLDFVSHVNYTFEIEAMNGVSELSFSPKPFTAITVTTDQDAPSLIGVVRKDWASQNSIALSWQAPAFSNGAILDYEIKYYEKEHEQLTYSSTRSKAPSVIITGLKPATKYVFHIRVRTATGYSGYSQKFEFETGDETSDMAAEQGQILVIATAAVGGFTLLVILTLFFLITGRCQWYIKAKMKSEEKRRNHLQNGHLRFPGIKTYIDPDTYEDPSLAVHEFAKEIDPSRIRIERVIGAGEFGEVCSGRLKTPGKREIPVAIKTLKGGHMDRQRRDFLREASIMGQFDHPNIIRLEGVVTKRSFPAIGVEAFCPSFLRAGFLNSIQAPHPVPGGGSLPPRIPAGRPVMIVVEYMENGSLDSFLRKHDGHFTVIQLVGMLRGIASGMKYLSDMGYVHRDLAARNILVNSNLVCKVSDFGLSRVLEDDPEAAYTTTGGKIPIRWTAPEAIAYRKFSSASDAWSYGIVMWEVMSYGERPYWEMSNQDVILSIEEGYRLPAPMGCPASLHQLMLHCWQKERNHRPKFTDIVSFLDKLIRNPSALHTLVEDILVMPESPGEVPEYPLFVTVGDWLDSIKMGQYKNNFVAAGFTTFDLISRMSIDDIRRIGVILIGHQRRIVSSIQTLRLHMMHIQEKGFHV
Chain of TLK2 (human) (Q86UE8 whole entry, looked up): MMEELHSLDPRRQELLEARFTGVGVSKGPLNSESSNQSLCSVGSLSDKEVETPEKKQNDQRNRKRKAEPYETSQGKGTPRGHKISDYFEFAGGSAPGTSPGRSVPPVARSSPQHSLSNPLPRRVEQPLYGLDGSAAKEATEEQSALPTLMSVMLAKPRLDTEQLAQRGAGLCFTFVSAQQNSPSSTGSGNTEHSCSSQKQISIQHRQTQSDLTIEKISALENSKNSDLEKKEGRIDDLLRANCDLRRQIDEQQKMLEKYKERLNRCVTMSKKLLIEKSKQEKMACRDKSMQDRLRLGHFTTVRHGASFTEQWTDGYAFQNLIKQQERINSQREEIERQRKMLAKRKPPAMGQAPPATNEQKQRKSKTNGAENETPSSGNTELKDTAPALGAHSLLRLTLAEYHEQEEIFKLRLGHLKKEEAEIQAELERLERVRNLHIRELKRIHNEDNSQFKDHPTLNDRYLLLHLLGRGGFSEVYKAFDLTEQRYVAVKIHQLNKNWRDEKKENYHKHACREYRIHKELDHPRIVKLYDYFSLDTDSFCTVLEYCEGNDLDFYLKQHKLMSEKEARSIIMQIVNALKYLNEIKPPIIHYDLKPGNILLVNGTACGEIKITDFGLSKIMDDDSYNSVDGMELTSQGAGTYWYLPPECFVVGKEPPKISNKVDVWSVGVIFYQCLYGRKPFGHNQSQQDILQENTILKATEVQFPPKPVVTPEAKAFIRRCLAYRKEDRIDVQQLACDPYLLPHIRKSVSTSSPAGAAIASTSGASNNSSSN
Chain of BRAF (human) (P15056 whole entry, looked up): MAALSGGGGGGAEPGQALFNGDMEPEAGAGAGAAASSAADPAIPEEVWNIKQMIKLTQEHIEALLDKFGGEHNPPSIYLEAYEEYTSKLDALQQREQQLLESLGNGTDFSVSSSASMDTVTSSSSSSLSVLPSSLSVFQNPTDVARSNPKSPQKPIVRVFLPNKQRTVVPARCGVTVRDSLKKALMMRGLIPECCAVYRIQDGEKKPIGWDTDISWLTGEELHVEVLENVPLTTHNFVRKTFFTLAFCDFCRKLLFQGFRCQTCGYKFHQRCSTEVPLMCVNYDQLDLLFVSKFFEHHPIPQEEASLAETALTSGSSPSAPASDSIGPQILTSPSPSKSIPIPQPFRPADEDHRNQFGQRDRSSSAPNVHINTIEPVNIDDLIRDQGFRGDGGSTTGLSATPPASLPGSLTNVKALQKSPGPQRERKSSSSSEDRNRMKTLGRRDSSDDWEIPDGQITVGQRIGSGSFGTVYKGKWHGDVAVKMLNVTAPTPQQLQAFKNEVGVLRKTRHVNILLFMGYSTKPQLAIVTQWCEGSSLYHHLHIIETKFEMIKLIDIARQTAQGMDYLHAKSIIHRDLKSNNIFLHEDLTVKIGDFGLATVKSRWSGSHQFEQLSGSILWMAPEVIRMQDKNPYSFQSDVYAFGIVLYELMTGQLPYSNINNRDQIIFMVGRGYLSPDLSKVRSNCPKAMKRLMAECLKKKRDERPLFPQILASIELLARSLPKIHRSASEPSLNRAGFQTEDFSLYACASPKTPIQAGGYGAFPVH

In the case of `CN(C)c1ccc(/C=C2\C(=O)Nc3ccccc32)cc1`, the residual activity (commonly the signal under treatment as a percentage of the control signal) at BRAF (human) came out at 101%.
`COc1cc2ncnc(Nc3ccc(Oc4ccccc4)cc3)c2cc1OC`: the residual activity was 64.8% on EPHA6 (human), 107% on TLK2 (human) and 79.6% on BRAF (human).
`N#C/C(=C\c1ccc(O)c(O)c1)C(=O)NCc1ccccc1`: the residual activity at EPHA6 (human) stood at 95.7%; at TLK2 (human) it was 105%; at BRAF (human) it was 109%.
Take `COc1ccc2c(c1)/C(=C/c1cnc[nH]1)C(O)=N2`: the residual activity at EPHA6 (human) stood at 91.3%; on BRAF (human), 98.4%.
`O=C1Nc2ccc(Br)cc2/C1=C\c1cc2c([nH]1)CCCC2`: the figures for the residual activity at EPHA6 (human), at TLK2 (human) and at BRAF (human) were 89.2%, 101% and 92.5%, respectively.
Taken in the same sequence, the figures for `COc1cc(Nc2c(C#N)cnc3cc(OCCCN4CCN(C)CC4)c(OC)cc23)c(Cl)cc1Cl` were 4.38%, 92.2% and 91.7%.
On to `Cc1cncc2cccc(S(=O)(=O)N3CCCN(C(=O)CN)C[C@H]3C)c12`, for which the figures for the residual activity on EPHA6 (human) and on TLK2 (human) were 92.2% and 97.7%, respectively.
Consider `O=C(c1cc2cc(O)ccc2[nH]1)c1cc2cc(O)ccc2[nH]1`, for which, on BRAF (human), the residual activity worked out at 97.4%.
Still for that read-out and setting: in the case of `O=C1NC(=O)c2c1c1c3ccccc3[nH]c1n1cncc21` it was 101%.
For the compound `Cn1c2ccccc2c2c3c(c4c5ccccc5n(CCC#N)c4c21)CNC3=O`, the residual activity at BRAF (human) was 110%.
The same measure, in the same setting: for `COc1ccc(Cl)cc1NC(=O)Nc1cc(C)nc2ccccc12` the value was 98.9%.
Consider `Cc1cccc(-c2nc(C(C)(C)C)[nH]c2-c2ccc3c(c2)OCO3)n1`, for which the figures for the residual activity at EPHA6 (human), at TLK2 (human) and at BRAF (human) were 92.7%, 103% and 111%, respectively.
On the same counts, the results for `O=C1C(Cl)=C(N2C(=O)CCC2=O)C(=O)c2ccccc21` are 89.5%, 117% and 96.3%.
As for `Fc1ccc(-c2nc3n(c2-c2ccncc2)CCS3)cc1`, the residual activity on EPHA6 (human) and on TLK2 (human) was 94.7% each time.
Consider `O=C1c2ccccc2-c2nc3nnnn3nc21`, for which the residual activity on EPHA6 (human) amounted to 106%; on TLK2 (human), 100%.
Turning to `N#Cc1c[nH]c2c[nH]/c(=N\Cc3cccnc3)cc2/c1=N\c1ccc(F)c(Cl)c1`, the figures for the residual activity on EPHA6 (human), at TLK2 (human) and on BRAF (human) were 76.2%, 106% and 106%, respectively.
For `CS(=O)(=O)CCNCc1ccc(-c2ccc3ncnc(Nc4ccc(OCc5cccc(F)c5)c(Cl)c4)c3c2)o1`, the residual activity on EPHA6 (human) was found to be 115%; on TLK2 (human) it was 83.9%.
Regarding `CN(C)CCCn1cc(C2=C(c3c[nH]c4ccccc34)C(=O)NC2=O)c2ccccc21`, the residual activity at BRAF (human) came to 103%.
On to `CN(C)S(=O)(=O)c1ccc2c(c1)/C(=C/c1cc3c([nH]1)CCCC3)C(=O)N2`, for which the residual activity was found to be 61.9% at EPHA6 (human), 102% at TLK2 (human) and 89.2% on BRAF (human).
Taken in the same sequence, the figures for `C[C@@H]1CCN(C(=O)CC#N)C[C@@H]1N(C)c1ncnc2[nH]ccc12` were 99%, 94.4% and 93.7%.
For the compound `COc1ccc(S(=O)(=O)N(CCO)c2ccccc2CN(C)C/C=C/c2ccc(Cl)cc2)cc1`, the residual activity on EPHA6 (human) came to 95.3%; on TLK2 (human), 96.6%.
`CO[C@@H]1[C@H](N(C)C(=O)c2ccccc2)C[C@H]2O[C@]1(C)n1c3ccccc3c3c4c(c5c6ccccc6n2c5c31)C(=O)NC4`: the results for the residual activity at EPHA6 (human), at TLK2 (human) and at BRAF (human) were 79.5%, 75% and 106%, respectively.
Turning to `Cc1nc(-c2ccccc2)c(-c2ccncc2)o1`, the figures for the residual activity on EPHA6 (human) and on TLK2 (human) were 95.9% and 110%, respectively.
As for `c1ccc2c(-c3ccncc3)c[nH]c2c1`, the residual activity worked out at 104% on EPHA6 (human), 95.8% on TLK2 (human) and 94% on BRAF (human).
